This is an account of results in patent US20130095059A1, “INHALED NO DONOR KMUPS DERIVATIVE PREVENTING ALLERGIC PULMONARY VASCULAR AND BRONCHIAL INFLAMMATION VIA SUPPRESSED CYTOKINES, INOS AND INFLAMMATORY CELL COUNTS IN ASTHMA MODEL” (priority 2007, published 2013).

The test system of one assay is NOx. In words: Ovalbumine model, NO metabolites (NOx) in BALF. The assay is classed as in vivo, BALB/c mice. The conditions noted are these: 24 hrs after last challenge; basal 65.4±8.2, ovalbumine 162.8±15.7. The protocol: (§1) In this long-term experiment, 6-8 week old BALB/c female mice were sensitized on days 1 and 8 by intra-peritoneal injection (i.p.) of ovalbumine (10 μg) (Sigma-Aldrich, Schnelldorf, Germany) adsorbed to 2 mg aluminum hydroxide (AlumInject; Perbio, Erembodegem, Belgium). Mice were divided into three groups. In Group 1, a control group was only exposed to saline nebulization by aerosol. The other 2 groups were subjected to ovalbumine (1%) nebulization. Before each challenge with ovalbumine, mice were either exposed to saline nebulization (Group 2) or KMUP-1 nebulization (5 mM) for 30 min by aerosol (Group 3).
The remaining BALF was centrifuged (900 g, 1200 rpm, 10 min) and the supernatant frozen (−80° C.) until determination of nitrite and nitrate by the Griess reaction. BALF (100 μL) was incubated (37° C.) for 30 min with N-2-hydroxyethylpiperazine-N′-ethane sulphonic acid buffer (HEPES) (50 mM, pH 7.4), flavin adenine dinucleotide (5 μM), nicotinamide adenine dinucleotide phosphate (0.1 mM), distilled water (290 μl), and nitrate reductase (0.2 U/ml) for the conversion of nitrate into nitrite. […] The samples were then incubated (25° C., 10 min) with Griess reagent [N-(1-naphthyl)-ethylenediamine: 0.2% (w/v), sulphanilamide: 2% (w/v), solubilized in double-distilled water: 95% and phosphoric acid: 5% (v/v)] and the absorbance measured at 540 nm. […]

A further assay deals with PCNA. Kind of assay: PASMCs proliferation (PCNA) in MCT-treated lung tissues. The assay is classed as in vivo, rats. The conditions noted are these: day 21 after MCT injection. Here is the method: We evaluated proliferating cell nuclear antigen (PCNA) to assess PASMCs proliferation in rats treated with MCT alone or with KMUP-1. Lung tissue sections were de-paraffinized in xylene and then treated with a graded series of alcohol washes, rehydrated in PBS (pH 7.5), and incubated with target retrieval solution (DAKO Co, Tokyo, Japan) in a water bath at 90° C. for 20 min. Endogenous peroxidase activity was blocked with H2O2 in PBS (3%, vol/vol) for 5 min. Slides were then washed in PBS, incubated for 30 min in a protein blocking solution, and incubated for 30 min with anti-PCNA mouse monoclonal antibody (PC-10, 1:200, Dako). Antibodies were washed off, and the slides were processed with an […] LSAB and system horseradish peroxidase detection kit (DAKO Co, Tokyo, Japan). Brown color was generated with a DAB substrate, and nuclei were counter-stained with hematoxylin.

In the next assay the test system is IL-13. In words: Ovalbumine model, plasma IL-13 (ELISA). The assay is classed as in vivo, mice. The conditions noted are these: mice sensitized and challenged by ovalbumine. The protocol: as §1
(In general: In an ELISA, binding on a coated surface is turned into a signal by an enzyme label.)

The test system of another assay is iNOS. Kind of assay: Ovalbumine model, iNOS expression. Format: in vivo, BALB/c mice. As to conditions: 28-day experiment; nebulization.
The next assay addresses T1, 5-HT2B receptor (Homo sapiens, UniProt P41595).
T1 construct: full length clones of 5-HT2A, 5-HT2B and 5-HT2C receptor were prepared from CHO-K1 cells; expressed in transfected cells; host or cells: CHO-K1
In words: Displacement of radioligand binding, 5-HT2B. The protocol:
(§2) Displacement of Radioligand Binding Assay
(§3) As described previously, full length clones of 5-HT2A, 5-HT2B and 5-HT2C receptor were prepared from CHO-K1 cells. […] IC50 represents the concentration of competing ligand which displaces 50% of the specific binding of the radioligand. Ki values for competition curves were calculated using the Cheng-Prusoff equation (Cheng, 2001).

The target in a further assay is T2, 5-HT2C receptor (Homo sapiens, UniProt P28335).
T2 construct: full length clones of 5-HT2A, 5-HT2B and 5-HT2C receptor were prepared from CHO-K1 cells; expressed in transfected cells; host or cells: CHO-K1
T2 sequence (P28335 33-458): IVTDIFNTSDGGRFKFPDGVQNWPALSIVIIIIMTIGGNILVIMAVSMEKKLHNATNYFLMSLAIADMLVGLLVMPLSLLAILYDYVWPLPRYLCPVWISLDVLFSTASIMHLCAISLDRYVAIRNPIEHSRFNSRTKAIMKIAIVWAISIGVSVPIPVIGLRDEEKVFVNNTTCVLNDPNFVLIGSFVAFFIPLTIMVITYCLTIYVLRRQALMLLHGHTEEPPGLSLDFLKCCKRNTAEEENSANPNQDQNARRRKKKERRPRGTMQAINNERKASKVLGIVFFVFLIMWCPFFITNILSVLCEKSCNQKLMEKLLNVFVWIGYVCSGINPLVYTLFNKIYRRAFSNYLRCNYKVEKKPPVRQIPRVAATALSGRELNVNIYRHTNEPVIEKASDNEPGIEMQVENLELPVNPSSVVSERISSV
In words: Displacement of radioligand binding, 5-HT2C. The conditions noted are these: [^3H]-mesulergine, human recombinant CHO-K1 cells. The protocol:
as §2, §3

In a further assay the test system is MMP-9. Kind of assay: Short term nebulization, MMP-9 expression in lung tissues. Format: in vivo, BALB/c mice. As to conditions: nebulization 1.0˜2.5 mM, 30 mins, without ovalbumine sensitization. Here is the method: […] […] […] Three different experiments were performed on cohorts of 7˜14 mice per experimental condition.
The lung tissues were homogenized, washed with PBS and incubated in lysis buffer in addition to a protease inhibitor cocktail (Sigma, St. Louis, Mo.) to obtain extracts of lung proteins. A Western blot analysis was performed as described previously (Wu B N, et al., 2006). The samples were loaded to 10% SDS-PAGE gels and were separated at 120 V for 90 min. The blots were incubated with anti-eNOS antibody diluted at a ratio of 1:500, anti-sGCα1 antibody diluted at a ratio of 1:2000, anti-PKG antibody diluted at a ratio of 1:500, anti-VCAM-1 antibody diluted at a ratio of 1:500, anti-ICAM-1 antibody diluted at a ratio of 1:500, and anti-MMP-9 antibody diluted at a ratio of 1:600 overnight at 4° C. The membranes were stripped and re-blotted with anti-actin antibody (Sigma, St. Louis, Mo.) to verify the equal loading of protein in each lane.

T1 sequence (P41595 whole entry): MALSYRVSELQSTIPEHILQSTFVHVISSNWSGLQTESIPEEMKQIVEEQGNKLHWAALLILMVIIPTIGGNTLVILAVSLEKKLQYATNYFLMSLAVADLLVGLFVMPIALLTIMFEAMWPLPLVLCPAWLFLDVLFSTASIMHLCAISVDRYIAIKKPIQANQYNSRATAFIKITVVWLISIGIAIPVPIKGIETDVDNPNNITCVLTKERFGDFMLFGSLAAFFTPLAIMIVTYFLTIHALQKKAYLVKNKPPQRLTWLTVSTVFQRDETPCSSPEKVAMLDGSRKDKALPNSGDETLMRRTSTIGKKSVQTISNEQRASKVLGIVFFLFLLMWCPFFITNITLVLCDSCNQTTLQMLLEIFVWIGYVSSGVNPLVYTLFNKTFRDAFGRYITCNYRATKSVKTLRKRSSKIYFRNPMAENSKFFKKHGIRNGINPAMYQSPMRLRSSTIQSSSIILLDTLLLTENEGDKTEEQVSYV

Regarding `Cn1c(=O)c2c(ncn2CCN2CCN(c3ccccc3Cl)CC2)n(C)c1=O` [KMUP-1, 7-[2-[4-(2-chlorophenyl)piperazinyl]ethyl]-1,3-dimethylxanthine], the “levels of NOx (nitrate+nitrite) in BALF” value in the assay on NOx came out at 86.3 ± 17.3 µM. Besides, in the assay with PCNA, the “number of PCNA-positive cells in pulmonary artery walls” value is on record as “markedly lower”. Besides, in the assay with IL-13, the “IL-13 levels in the plasma” value is “inhibited”. The “increased iNOS expression by ovalbumine sensitization” value with iNOS is “significantly reduced”. Also, the “ligand specificity of 5-HT2B receptor versus 5-HT2A and 5-HT2C receptors” value on 5-HT2B receptor is given as “more selective”. The IC50 amounted to 40 nM at 5-HT2B receptor ([^3H]-LSD, human recombinant CHO-K1 cells) and 408 nM on 5-HT2C receptor. Also, the Ki was 25.4 nM at 5-HT2B receptor ([^3H]-LSD, human recombinant CHO-K1 cells, Cheng-Prusoff) and 214 nM at 5-HT2C receptor (Cheng-Prusoff). Besides, the “MMP-9 expression in mice lung tissues” value in the assay on MMP-9 is recorded as “decreased”.

A word on the IC50: it is the point on the concentration scale where inhibition reaches its midpoint. One may read the Ki as the dissociation constant of the complex between target and ligand, obtained from inhibition or displacement.
